Source: PubChem BioAssay AID248 (DTP/NCI, 2004)
“And” between values parts separate entries of the source, which are not always exact repeats. Equal values may be shown once. Inconclusive results and toxic doses are left out. No stated cut-off is given here; in the data, active means T/C of 150% or more; inactive means T/C below 125%.

Test system: L1210 leukemia ip in BDF1 mice, survival T/C
Experiment: NCI In Vivo Anticancer Drug Screen. Data for tumor model L1210 Leukemia (intraperitoneal) in B6D2F1 (BDF1) mice
Details: endpoint: mean survival time, higher = longer survival
Procedure, shortened: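 Transplanted-tumor mice were given test agent; controls received vehicle only. Survival readings from the two groups were divided (treated over control).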

[1] = dose: 100.0 mg/kg/injection, schedule: Q04DX003 (ip), vehicle: Klucel (hydroxypropylcellulose) (HPC)
[2] = dose: 100.0 mg/kg/injection, schedule: Q01DX009 (ip), vehicle: saline with Tween-80
[3] = dose: 100.0 mg/kg/injection, schedule: Q04DX003 (ip), vehicle: saline with Tween-80
[4] = dose: 200.0 mg/kg/injection, schedule: Q04DX003 (ip), vehicle: saline with Tween-80
[5] = dose: 400.0 mg/kg/injection, schedule: Q01DX009 (ip), vehicle: saline with Tween-80
[6] = dose: 400.0 mg/kg/injection, schedule: Q04DX003 (ip), vehicle: saline with Tween-80
[7] = dose: 50.0 mg/kg/injection, schedule: Q01DX009 (ip), vehicle: Klucel (hydroxypropylcellulose) (HPC)
[8] = dose: 100.0 mg/kg/injection, schedule: Q01DX009 (ip), vehicle: Klucel (hydroxypropylcellulose) (HPC)
[9] = dose: 200.0 mg/kg/injection, schedule: Q01DX009 (ip), vehicle: Klucel (hydroxypropylcellulose) (HPC)
[10] = dose: 200.0 mg/kg/injection, schedule: Q04DX003 (ip), vehicle: Klucel (hydroxypropylcellulose) (HPC)
[11] = dose: 400.0 mg/kg/injection, schedule: Q04DX003 (ip), vehicle: Klucel (hydroxypropylcellulose) (HPC)
[12] = dose: 200.0 mg/kg/injection, schedule: Q01DX009 (ip), vehicle: saline with Tween-80
[13] = dose: 100.0 mg/kg/injection, schedule: Q01DX001 (ip), vehicle: Klucel (hydroxypropylcellulose) (HPC)
[14] = dose: 100.0 mg/kg/injection, schedule: Q04DX002 (ip), vehicle: Klucel (hydroxypropylcellulose) (HPC)
[15] = dose: 200.0 mg/kg/injection, schedule: Q01DX001 (ip), vehicle: Klucel (hydroxypropylcellulose) (HPC)
[16] = dose: 200.0 mg/kg/injection, schedule: Q04DX002 (ip), vehicle: Klucel (hydroxypropylcellulose) (HPC)
[17] = dose: 400.0 mg/kg/injection, schedule: Q01DX001 (ip), vehicle: Klucel (hydroxypropylcellulose) (HPC)
[18] = dose: 400.0 mg/kg/injection, schedule: Q04DX002 (ip), vehicle: Klucel (hydroxypropylcellulose) (HPC)
[19] = dose: 50.0 mg/kg/injection, schedule: Q01DX001 (ip), vehicle: saline
[20] = dose: 100.0 mg/kg/injection, schedule: Q01DX001 (ip), vehicle: saline
[21] = dose: 200.0 mg/kg/injection, schedule: Q01DX001 (ip), vehicle: saline
[22] = dose: 400.0 mg/kg/injection, schedule: Q01DX001 (ip), vehicle: saline
[23] = dose: 100.0 mg/kg/injection, schedule: Q04DX003 (ip), vehicle: saline
[24] = dose: 200.0 mg/kg/injection, schedule: Q04DX003 (ip), vehicle: saline

Measured: T/C

CSc1ccnc2c1cnn2C1OC(CO)C(O)C1O (stereo unspecified)
inactive: dose: 50.0 mg/kg/injection, schedule: Q01DX005 (ip), vehicle: other 109 % of control | dose: 100.0 mg/kg/injection, schedule: Q01DX005 (ip), vehicle: other 102 % of control | dose: 200.0 mg/kg/injection, schedule: Q01DX005 (ip), vehicle: other 98 % of control

Cc1cc(N(CCOS(C)(=O)=O)CCOS(C)(=O)=O)ccc1C=Nc1ccc(-c2csc(-c3ccccc3)n2)c(Cl)c1
inactive: dose: 20.0 mg/kg/injection, schedule: Q04DX003 (ip), vehicle: Klucel (hydroxypropylcellulose) (HPC) 121 % of control | dose: 60.0 mg/kg/injection, schedule: Q04DX003 (ip), vehicle: Klucel (hydroxypropylcellulose) (HPC) 122 % of control | dose: 80.0 mg/kg/injection, schedule: Q04DX003 (ip), vehicle: Klucel (hydroxypropylcellulose) (HPC) 120 % of control | [1] 122 % of control

O=c1cc(/C=N/Nc2ccc([N+](=O)[O-])cc2[N+](=O)[O-])c2cccc3c2n1CCC3
inactive: [2] 93 % of control | [3] 98 % of control | [4] 101 % of control | [5] 93 % of control | [6] 102 % of control

C=CCNC(=S)Nc1ccc(C)cc1
inactive: [7] 95 % of control | [8] 97 % of control | [1] 103 % of control | [9] 100 % of control | [10] 101 % of control | [11] 88 % of control

O=C(O)c1c(Cl)c(Cl)c(C(=O)O)c(Cl)c1Cl
inactive: [2] 95 % of control | [12] 93 % of control | [5] 89 % of control

O=C(/C=C/c1ccccc1)c1ccccc1
inactive: [13] 98 % of control | [14] 105 % of control | [1] 100 % of control | [15] 99 % of control | [16] 105 % of control | [10] 104 % of control | [17] 94 % of control | [18] 94 % of control | [11] 98 % of control

OC(CN1CCCCC1)c1nc2ccccc2c2ccccc12 (stereo unspecified)
inactive: [19] 102 % of control | [20] 94 % of control

CC(C)(C)c1cc(OCC2CO2)ccc1OCC1CO1 (stereo unspecified)
inactive: [20] 107 % of control | [21] 107 % of control | [22] 95 % of control

COC(=O)c1cc(-c2ccccc2)[nH]c1-c1ccc2ccccc2n1
inactive: dose: 100.0 mg/kg/injection, schedule: Q01DX001 (ip), vehicle: steriod suspending solution 100 % of control | dose: 200.0 mg/kg/injection, schedule: Q01DX001 (ip), vehicle: steriod suspending solution 100 % of control | dose: 400.0 mg/kg/injection, schedule: Q01DX001 (ip), vehicle: steriod suspending solution 94 % of control

COC(=O)N1C(N2CCCC2=O)C(C)(C)S1(=O)=O (stereo unspecified)
inactive: dose: 75.0 mg/kg/injection, schedule: Q04DX003 (ip), vehicle: Klucel (hydroxypropylcellulose) (HPC) 102 % of control | dose: 150.0 mg/kg/injection, schedule: Q04DX003 (ip), vehicle: Klucel (hydroxypropylcellulose) (HPC) 94 % of control | dose: 300.0 mg/kg/injection, schedule: Q04DX003 (ip), vehicle: Klucel (hydroxypropylcellulose) (HPC) 89 % of control

O=C(Nc1ccccc1Cl)Oc1ccc(-c2ccccc2)cc1
inactive: [14] 95 % of control | [16] 95 % of control | [18] 106 % of control

O=C(O)CCc1cc([N+](=O)[O-])c(O)c([N+](=O)[O-])c1
inactive: [3] 96 % of control | [4] 101 % of control | [6] 99 % of control

CCNC(=O)c1ccccc1-c1ccccc1C(=O)NCC
inactive: dose: 100.0 mg/kg/injection, schedule: Q01DX001 (ip), vehicle: other 104 % of control

COc1ccc(Cl)cc1NC(=O)Oc1ccccc1C(C)C
inactive: dose: 100.0 mg/kg/injection, schedule: Q01DX001 (ip), vehicle: saline with Tween-80 96 % of control | [2] 96 % of control | dose: 100.0 mg/kg/injection, schedule: Q04DX002 (ip), vehicle: saline with Tween-80 95 % of control and 106 % of control | dose: 200.0 mg/kg/injection, schedule: Q01DX001 (ip), vehicle: saline with Tween-80 102 % of control | [12] 98 % of control | dose: 200.0 mg/kg/injection, schedule: Q04DX002 (ip), vehicle: saline with Tween-80 92 % of control and 109 % of control | dose: 400.0 mg/kg/injection, schedule: Q01DX001 (ip), vehicle: saline with Tween-80 87 % of control | [5] 89 % of control | dose: 400.0 mg/kg/injection, schedule: Q04DX002 (ip), vehicle: saline with Tween-80 95 % of control and 91 % of control

CN(C)CCCNCC(=O)N1CCN(C(=O)CNCCCN(C)C)CC1
inactive: dose: 50.0 mg/kg/injection, schedule: Q01DX001 (ip), vehicle: carboxymethylcellulose (CMC) 106 % of control | dose: 100.0 mg/kg/injection, schedule: Q01DX001 (ip), vehicle: carboxymethylcellulose (CMC) 106 % of control

CC(=O)Nc1ccc(CCCCc2c(C)nc(NC(C)=O)[nH]c2=O)cc1
inactive: [13] 91 % of control | [15] 89 % of control

CCOC(=O)c1nc(NC)sc1N
inactive: dose: 12.5 mg/kg/injection, schedule: Q01DX009 (ip), vehicle: saline 98 % of control | dose: 25.0 mg/kg/injection, schedule: Q01DX009 (ip), vehicle: saline 104 % of control | dose: 50.0 mg/kg/injection, schedule: Q01DX009 (ip), vehicle: saline 97 % of control and 98 % of control | [23] 102 % of control | [24] 100 % of control

O=C1C/C(=C\c2ccccc2O)C(=O)c2ccccc21
inactive: dose: 10.0 mg/kg/injection, schedule: Q04DX002 (ip), vehicle: Klucel (hydroxypropylcellulose) (HPC) 101 % of control | dose: 20.0 mg/kg/injection, schedule: Q04DX002 (ip), vehicle: Klucel (hydroxypropylcellulose) (HPC) 93 % of control | dose: 40.0 mg/kg/injection, schedule: Q04DX002 (ip), vehicle: Klucel (hydroxypropylcellulose) (HPC) 101 % of control

CCOC1=CCCCC1
inactive: [19] 101 % of control | [20] 103 % of control | [21] 103 % of control | [22] 101 % of control

BrC(Br)c1cnc2ccccc2n1
inactive: [7] 107 % of control | [8] 92 % of control | [9] 101 % of control

CC1(C)NC(=O)C(/C=C/c2ccccc2)O1 (stereo unspecified)
inactive: dose: 25.0 mg/kg/injection, schedule: Q01DX009 (ip), vehicle: Klucel (hydroxypropylcellulose) (HPC) 102 % of control | dose: 25.0 mg/kg/injection, schedule: Q04DX003 (ip), vehicle: Klucel (hydroxypropylcellulose) (HPC) 97 % of control | [7] 100 % of control | dose: 50.0 mg/kg/injection, schedule: Q04DX003 (ip), vehicle: Klucel (hydroxypropylcellulose) (HPC) 95 % of control | [8] 89 % of control | [1] 97 % of control | [10] 92 % of control | [11] 101 % of control

O=C(O)c1ccc(CC2CCCC2)cc1
inactive: [13] 96 % of control | [1] 93 % of control | [15] 103 % of control | [10] 93 % of control | [17] 97 % of control | [11] 98 % of control

O=[N+]([O-])c1ccc(O)c(I)c1
inactive: [20] 97 % of control | [23] 100 % of control | [21] 98 % of control | [24] 105 % of control | [22] 95 % of control | dose: 400.0 mg/kg/injection, schedule: Q04DX003 (ip), vehicle: saline 102 % of control

CC(O)(c1ccccc1)C1C(c2ccccc2)N1Cc1ccccc1 (stereo unspecified)
inactive: dose: 100.0 mg/kg/injection, schedule: Q04DX003 (ip), vehicle: saline sonified 96 % of control | dose: 200.0 mg/kg/injection, schedule: Q04DX003 (ip), vehicle: saline sonified 94 % of control | dose: 400.0 mg/kg/injection, schedule: Q04DX003 (ip), vehicle: saline sonified 91 % of control

O=C(O)c1cccc2c1C(=O)c1cc([N+](=O)[O-])ccc1-2
inactive: dose: 75.0 mg/kg/injection, schedule: Q01DX001 (ip), vehicle: carboxymethylcellulose (CMC) 101 % of control | dose: 150.0 mg/kg/injection, schedule: Q01DX001 (ip), vehicle: carboxymethylcellulose (CMC) 105 % of control
